US20170027902A1, “Use of a Composition Comprising a Flavonol, A Flavonoid, and a Fatty Acid in the Treatment of Oxidative Injuries Due to Mitochondrial Dysfunction” (priority 2014, published 2017)

Experiments:
[1] = system: primary cultures of mouse cortical neurons; assay: Toxicity of high concentrations to cortical neuron cultures; assay type: cell-based; conditions: concentrations of 10 μg/ml or above
cortical neurons = assay: OGD, viable neurons counted by FACS (Annexin V / 7AAD); assay type: cell-based, mouse; conditions: 0.03 and 0.1 μg/ml (0.1 and 0.3 μM); 24 hrs pretreatment; 90 min OGD (vehicle approximately 45%)
Description: Embryonic day 16 timed pregnant CD1 out-bred mice were obtained from Charles River Laboratories (Charles River; QC, Canada). Primary cortical neuron cultures were prepared from cerebral cortices of wild type (WT) CD1 mouse embryos as described previously, with the following modifications. Pregnant CD1 females were heavily anaesthetized with isoflurane vapor (Benson Medical Industries, Inc., Markham, ON) before being euthanized by decapitation. The embryonic day 16 (E16) fetuses were immediately removed from the sacrificed pregnant females by cesarean section and placed in ice-cold Hank's Balanced Salt Solution (HBSS) (GIBCO; Invitrogen, Amarillo, Calif.). The meninges were removed from the brains and cortices were isolated under a dissecting microscope. […] The trypsin and inhibitor solutions were discarded and each cell pellet was suspended in 1 ml of cortical neuron plating medium (Neurobasal medium (Invitrogen, Amarillo, Calif.) with 10% fetal bovine serum (GIBCO; Invitrogen; Amarillo, Calif.), 2% B27 supplement, 1 mM L-glutamine, and 1% Gentamycin (Invitrogen; Amarillo, Calif.), triturated 10 times and counted using trypan blue exclusion and a hemocytometer. Cortical neurons were plated in 96-well plates (Corning; Lowell, Mass.) that were pre-coated with poly-D-lysine (PDL; Sigma-Aldrich; Oakville, ON) according to the procedure described by the manufacturer. […]

[2] = system: primary cultures of mouse cortical neurons; assay: Mitochondrial respiration (Seahorse XF24, oxygen consumption rate); assay type: cell-based; conditions: 0.1 μM, FCCP 2 μM
Description: The effects of E, Q and E+Q on key parameters of mitochondrial respiration in primary cultures of mouse cortical neurons were measured using a Seahorse Bioscience XF24 Extracellular Flux Analyzer XF24 instrument. Oxygen consumption rate (OCR) in fmol/cell were normalized by counting viable cortical neurons at the end of each experiment. A seeding density of 80,000 neurons/well was sufficient to obtain a measurable basal OCR (4-6 fmol/min/cell) permitting both OCR induction and inhibition to be assessed. Mitochondrial function in cortical neurons was measured by the sequential injection of oligomycin (2 μM), FCCP (2 μM), rotenone (300 nM) and antimycin (5 μM) to control and OGD-exposed cultures treated with various concentrations of E, Q or E+Q (0.1 μM).

SMILES | toxicity to primary cultures of mouse cortical neurons [1] | neuronal survival (viable neurons relative to control, no OGD) (cortical neurons) | loss of spare respiratory capacity (SRC) after OGD [2]
O=c1c(O)c(-c2ccc(O)c(O)c2)oc2cc(O)cc(O)c12 [Q] | increasingly toxic | 55% | only partially reversed
Oc1cc(O)c2c(c1)O[C@H](c1ccc(O)c(O)c1)[C@H](O)C2 [E, (2R,3R)-2-(3,4-dihydroxyphenyl)-3,4-dihydro-2H-chromene-3,5,7-triol] | increasingly toxic | 55% | only partially reversed
